Measured values: paper PMC4225773 (Bioorganic & medicinal chemistry letters, 2014)
Values after ≈ are worked out from the molar mass of the structure shown. Like-named read-outs stand apart in the source and are kept apart here. Marks after values point to notes of the source that are not given here.

What was measured:
HDAC6 = conditions: cited from earlier work; for IC50: read-out: HDAC6 IC50, NI = No Inhibition at maximum tested concentration of 10 µM (percentage inhibition < 20%); for HDAC6 % inhibition at 10 µM: given if the IC50 was above 10 µM
[1] = Cytotoxicity to uninfected THP1 macrophage cells; conditions: human
HDAC8 = conditions: read-out: HDAC8 IC50; NI = No Inhibition at maximum tested concentration of 10 µM (percentage inhibition < 20%); cited from earlier work
[2] = system: Intra-macrophage Amastigote Stage of L. donovani; experiment: Amastigote-macrophage assay; conditions: for Cytotoxic activity against intra-macrophage amastigote (in words): THP1 host cells, 3HP values in Table S1 (not available); for Potency enhancement, intra-macrophage amastigote relative to axenic amastigote: comparing Tables 1 and 2
[3] = system: promastigote stage of L. donovani; experiment: Alamar blue
[4] = system: axenic amastigote of L. donovani; experiment: Alamar blue; format: cell-based
[5] = system: Intra-macrophage Amastigote Stage of L. donovani
in vitro = conditions: human
[6] = uninfected THP1 macrophage cells
[7] = L. donovani promastigote, maximum concentration tested 40 µg/mL
[8] = L. donovani axenic amastigote, maximum tested concentration 40 µg/mL

Row | Structure (SMILES) | IC50 (HDAC6) | IC50 [1, 6] | IC50 (HDAC8) | also measured
1 | Cc1ccccc1-c1ccc(Cn2cccc(O)c2=S)cc1 [Compound 9b] | 0.306 ± 0.069 µM | > 10 mg/L | 3.1 ± 1.65 µM | –
2 | Cc1cccc(-c2ccc(Cn3cccc(O)c3=S)cc2)c1 [Compound 8b] | 0.812 ± 0.286 µM | > 10 mg/L | 2.5 ± 1.18 µM | Cytotoxic activity against intra-macrophage amastigote (in words) [2]: inactive
3 | COc1ccc(Cn2ccc3ccc(C(=O)NO)cc32)cc1 [PCI-34051, reference compound] | – | – | – | Cytotoxicity to promastigote stage (in words) [3, 7]: minimal effect; IC50 [1]: > 10 mg/L; Cytotoxic activity against intra-macrophage amastigote (in words) [2]: inactive
4 | O=c1c(O)cccn1Cc1cn(-c2ccccc2)nn1 [Compound 12a] | > 10 µM | – | > 10 µM | –
5 | N#Cc1ccccc1-c1ccc(Cn2cccc(O)c2=S)cc1 [Compound 6b] | 0.372 ± 0.035 µM | > 10 mg/L | 1.91 ± 0.771 µM | Cytotoxic activity against intra-macrophage amastigote (in words) [2]: inactive
6 | O=c1c(O)cccn1Cc1ccccc1 [Compound 2a] | > 10 µM | – | > 10 µM | –
7 | O=c1c(O)cccn1Cc1ccc(-c2ccccc2)cc1 [Compound 3a] | > 10 µM | – | > 10 µM | Cytotoxic activity against intra-macrophage amastigote (in words) [2]: moderate to good cytotoxic activities
8 | Cc1ccc(-c2ccc(Cn3cccc(O)c3=O)cc2)cc1 [Compound 7a] | > 10 µM | – | > 10 µM | –
9 | Cc1ccc(-c2ccc(Cn3cccc(O)c3=S)cc2)cc1 [Compound 7b] | 0.454 ± 0.042 µM | > 10 mg/L | 0.8 ± 0.304 µM | –
10 | CN(C)c1ccc(-n2cc(Cn3cccc(O)c3=S)nn2)cc1 [Compound 13b] | 1.02 ± 0.099 µM | > 10 mg/L | 1.87 ± 0.723 µM | –
11 | N#Cc1ccc(-c2ccc(Cn3cccc(O)c3=S)cc2)cc1 [Compound 4b] | 0.957 ± 0.159 µM | > 10 mg/L | 2.08 ± 0.459 µM | Potency enhancement, intra-macrophage amastigote relative to axenic amastigote [2]: 5- to 25 fold
12 | N#Cc1ccc(-c2ccc(Cn3cccc(O)c3=O)cc2)cc1 [Compound 4a] | > 10 µM | – | > 10 µM | Cytotoxicity to axenic amastigote (in words) [4, 8]: about equipotent to both stages of L. donovani; Cytotoxic activity against intra-macrophage amastigote (in words) [2]: moderately active
13 | N=C(N)c1ccc(OCCCCCOc2ccc(C(=N)N)cc2)cc1 [Pentamidine, pentamidine] | – | – | – | Cytotoxic activity against intra-macrophage amastigote (in words) [5]: potently cytotoxic; IC50 (in vitro): > 10 mg/L
14 | N#Cc1cccc(-c2ccc(Cn3cccc(O)c3=S)cc2)c1 [Compound 5b] | – | > 10 mg/L | 1.7 ± 0.717 µM | HDAC6 % inhibition at 10 µM (HDAC6): 44% ^†
15 | Oc1cccnc1O [Compound 1a] | > 10 µM | – | > 10 µM | Cytotoxicity to promastigote stage (in words) [3, 7]: inactive
16 | Oc1cccn(Cc2ccc(-c3ccccc3)cc2)c1=S [Compound 3b] | 0.847 ± 0.188 µM | > 10 mg/L | 4.28 ± 1.55 µM | Potency enhancement, intra-macrophage amastigote relative to axenic amastigote [2]: 5- to 25 fold

Row | Structure (SMILES) | IC50 (HDAC6) | IC50 [1, 6] | IC50 (HDAC8) | also measured
17 | CN1CCc2c(c3ccccc3n2Cc2ccc(C(=O)NO)cc2)C1 [Tubastatin A, reference compound] | – | > 10 mg/L | – | –
18 | N#Cc1ccccc1-c1ccc(Cn2cccc(O)c2=O)cc1 [Compound 6a] | > 10 µM | – | > 10 µM | –
19 | C[C@@H]1[C@H](O)[C@@H](C)/C=C/C=C/C=C/C=C/C=C/C=C/C=C/[C@H](O[C@@H]2O[C@H](C)[C@@H](O)[C@H](N)[C@@H]2O)C[C@@H]2O[C@](O)(C[C@@H](O)C[C@@H](O)[C@H](O)CC[C@@H](O)C[C@@H](O)CC(=O)O[C@H]1C)C[C@H](O)[C@H]2C(=O)O [Amphotericin B] | – | – | – | IC50 ([3]; Leishmania donovani, read-out: Promastigote IC50): 0.4 mg/L (≈ 0.433 µM); Cytotoxic activity against intra-macrophage amastigote (in words) [5]: potently cytotoxic; IC50 (in vitro): > 10 mg/L
20 | CN(C)c1ccc(-c2ccc(Cn3cccc(O)c3=O)cc2)cn1 [Compound 11a] | > 10 µM | – | > 10 µM | –
21 | Oc1ccc[nH]c1=S [Compound 1b] | 0.681 ± 0.11 µM | > 10 mg/L | 3.68 ± 1.2 µM | Cytotoxicity to promastigote stage (in words) [3, 7]: weakly cytotoxic
22 | CN(C)c1ccc(-n2cc(Cn3cccc(O)c3=O)nn2)cc1 [Compound 13a] | > 10 µM | – | > 10 µM | Cytotoxic activity against intra-macrophage amastigote (in words) [2]: moderate to good cytotoxic activities
23 | CN(C)c1ccc(-c2ccc(Cn3cccc(O)c3=S)cc2)cc1 [Compound 10b] | > 10 µM | > 10 mg/L | 2.86 ± 0.944 µM | Potency enhancement, intra-macrophage amastigote relative to axenic amastigote [2]: 5- to 25 fold
24 | Oc1cccn(Cc2ccccc2)c1=S [Compound 2b] | 0.457 ± 0.027 µM | > 10 mg/L | 1.27 ± 0.2 µM | –
25 | Oc1cccn(Cc2cn(-c3ccccc3)nn2)c1=S [Compound 12b] | – | > 10 mg/L | 1.57 ± 1.07 µM | HDAC6 % inhibition at 10 µM (HDAC6): 41% ^†
26 | CN(C)c1ccc(-c2ccc(Cn3cccc(O)c3=O)cc2)cc1 [Compound 10a] | > 10 µM | – | > 10 µM | Cytotoxicity to axenic amastigote (in words) [4, 8]: about equipotent to both stages of L. donovani
27 | CN(C)c1ccc(-c2ccc(Cn3cccc(O)c3=S)cc2)cn1 [Compound 11b] | 2.39 ± 0.458 µM | > 10 mg/L | > 10 µM | –
28 | Cc1cccc(-c2ccc(Cn3cccc(O)c3=O)cc2)c1 [Compound 8a] | > 10 µM | – | > 10 µM | –
29 | N#Cc1cccc(-c2ccc(Cn3cccc(O)c3=O)cc2)c1 [Compound 5a] | > 10 µM | – | > 10 µM | Cytotoxic activity against intra-macrophage amastigote (in words) [2]: moderate to good cytotoxic activities
30 | O=C(CCCCCCC(=O)Nc1ccccc1)NO [SAHA, suberoylanilide hydroxamic acid, reference compound] | – | – | – | Cytotoxicity to promastigote stage (in words) [3]: minimal effect; Cytotoxicity to axenic amastigote (in words) [4]: non-toxic
31 | Cc1ccccc1-c1ccc(Cn2cccc(O)c2=O)cc1 [Compound 9a] | > 10 µM | – | > 10 µM | –
